Laboratory results taken from patent US10149817B2, “Topical skin treatment composition comprising dendranthema indicum extract” (AMOREPACIFIC CORPORATION, priority 2011, dated 2018).

What was measured:
[1] = system: collagenase; assay: Inhibition of collagenase expression in human fibroblasts; type: cell-based; conditions: 10^−4 M test material, 24 hours, untreated group = 100
Description: The collagenase expression inhibitory activities of the Chrysanthemum indicum var. albescens extract prepared in Preparation Example 1 and the Chrysanthemum indicum extract prepared in Comparative Preparation Example 1 were measured comparatively with those of tocopherol and EGCG. Tocopherol and EGCG are antioxidant substances known to function to regenerate the epidermal cells of the skin to prevent the aging of the skin.
In the test, human fibroblasts were added to a 96-well microtiter plate containing 2.5% FBS-containing DMEM (Dulbecco's Modified Eagle's Media) medium at a density of 5,000 cells/well and were cultured to a confluence of about 90%. […]
The production of collagenase in the harvested cell cultures was measured using a commercially available collagenase measuring device (Amersham Pharmacia, USA). […]
The absorbance of the 96-well plate having a yellow color was measured at 405 nm using a spectrophotometer, and the degree of synthesis of collagenase was calculated using the following Equation 1. Herein, the absorbance of the cell culture broth harvested from the group not treated with the test material was used as a control. That is, the expression level of collagenase in the untreated group was set as 100, and the expression level of collagenase in the group treated with the test material was calculated relative to the untreated group. […]

[2] = system: C57BL/6 mouse melanocytes (Mel-Ab cells); assay: Melanin production inhibitory effect using mouse melanocytes; type: cell-based; conditions: 25 ppm test material, three consecutive days, absorbance at 400 nm
Description: The melanin production inhibitory activities of the Chrysanthemum indicum var. albescens extract prepared in Preparation Example 1 and the Chrysanthemum indicum extract prepared in Comparative Preparation Example 1 were measured comparatively with those of the known whitening substance hydroquinone.
C57BL/6 mouse melanocytes (Mel-Ab cells) (Dooley, T. P. et al, Skin pharmacol, 7, pp 188-200) were cultured in DMEM, containing 10% fetal bovine serum, 100 nM 12-O-tetradecanoylphorbol-13-acetate and 1 nM cholera toxin, under the conditions of 37° C. and 5% CO2. The cultured Mel-Ab cells were detached with 0.25% trypsin-EDTA and cultured in a 24-well plate at a concentration of […]. Then, during three consecutive days from 2 days of culture, each of the test materials was added thereto and cultured. As the test materials, 25 ppm of each of the Chrysanthemum indicum var. albescens extract of Preparation Example 1, the Chrysanthemum indicum extract of Comparative Preparation Example 1, and hydroquinone were used. Herein, the hydroquinone was used as a positive control. […] The lysed cells were measured for absorbance at 400 nm, and based on the measured absorbance, the percent inhibition of melanin production was calculated according to the following equation 2. Percent inhibition of melanin production=100−(absorbance of test material/absorbance of control×100) Equation 2

[3] = system: skin of panels sensitive to irritation; assay: Irritation test (stinging, burning) in panels sensitive to irritation; type: in vivo; conditions: 0.5 mL applied to skin, 15 panels
Description: In order to compare the sensory feeling of the Chrysanthemum indicum var. albescens extract of the present invention with that of the known whitening substance kojic acid, 15 panels sensitive to irritation, such as stinging, burning, etc., were subjected to a test for determining irritation, such as stinging, burning, etc.
Each test panel was allowed to apply 0.5 mL of each of kojic acid (available from YM Chemical Co.) and the Chrysanthemum indicum var. albescens extract to his/her skin randomly at the left side or right side, and then evaluate the test sample by grading from 0 to 3.0 at an interval of 0.1.
0.5-1.0: slight irritation;
1.1-2.0: mild irritation;
2.1-3.0: severe irritation.

[4] = grade 0 to 3.0 at interval of 0.1

Molecule: O=C(O[C@@H]1Cc2c(O)cc(O)cc2O[C@@H]1c1cc(O)c(O)c(O)c1)c1cc(O)c(O)c(O)c1 [EGCG]
- Collagenase expression level (%) [1]: 69%

Molecule: Oc1ccc(O)cc1 [Hydroquinone, hydroquinone]
- inhibition at 25 ppm [2]: 48.2%

Molecule: O=c1cc(CO)occ1O [Kojic acid, kojic acid]
- Irritation with respect to stinging and burning (in words) [3]: slight stinging and burning
- Average (irritation grade of stinging and burning) ([3]; grade 0 to 3.0): 0.67
- Burning (irritation grade 0 to 3.0) [3, 4]: 0.43
- Stinging (irritation grade 0 to 3.0) [3, 4]: 0.91

Molecule: tocopherol
- Collagenase expression level (%) [1]: 76%
